Data on five molecules can be found in PMC5623949, “Exploiting the 2-Amino-1,3,4-thiadiazole Scaffold To Inhibit Trypanosoma brucei Pteridine Reductase in Support of Early-Stage Drug Discovery” (ACS Omega, 2017).

Sequence of CYP2D6 (P10635 whole entry, canonical isoform): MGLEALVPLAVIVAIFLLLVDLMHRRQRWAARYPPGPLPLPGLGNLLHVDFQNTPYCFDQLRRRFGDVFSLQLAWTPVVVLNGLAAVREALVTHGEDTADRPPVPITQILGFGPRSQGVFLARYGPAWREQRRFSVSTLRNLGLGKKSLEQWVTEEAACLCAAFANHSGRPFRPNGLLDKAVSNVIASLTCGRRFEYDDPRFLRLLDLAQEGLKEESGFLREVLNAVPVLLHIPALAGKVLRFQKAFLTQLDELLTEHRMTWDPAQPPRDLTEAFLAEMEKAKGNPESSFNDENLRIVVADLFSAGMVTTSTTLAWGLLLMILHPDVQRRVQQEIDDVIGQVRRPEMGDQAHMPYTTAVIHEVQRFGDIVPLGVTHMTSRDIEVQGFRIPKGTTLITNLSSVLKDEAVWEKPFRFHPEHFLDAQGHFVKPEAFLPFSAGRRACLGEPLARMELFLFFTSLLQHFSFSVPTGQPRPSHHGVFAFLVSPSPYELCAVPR
Sequence of CYP2C9 (P11712 whole entry, canonical isoform): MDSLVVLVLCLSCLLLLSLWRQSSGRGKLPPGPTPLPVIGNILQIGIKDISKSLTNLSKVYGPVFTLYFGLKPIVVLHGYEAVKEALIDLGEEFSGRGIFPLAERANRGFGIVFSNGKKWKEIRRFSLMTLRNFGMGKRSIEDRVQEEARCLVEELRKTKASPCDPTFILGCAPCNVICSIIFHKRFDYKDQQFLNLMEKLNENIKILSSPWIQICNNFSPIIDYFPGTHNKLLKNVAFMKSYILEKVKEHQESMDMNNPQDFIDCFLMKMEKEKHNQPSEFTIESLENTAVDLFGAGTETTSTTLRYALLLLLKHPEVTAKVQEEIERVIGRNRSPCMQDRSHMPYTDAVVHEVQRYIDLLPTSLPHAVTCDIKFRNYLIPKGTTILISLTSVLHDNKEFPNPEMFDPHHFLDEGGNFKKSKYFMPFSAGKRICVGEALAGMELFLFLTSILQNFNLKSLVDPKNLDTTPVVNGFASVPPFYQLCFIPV

One data set has as its system T. b. brucei Lister 427 bloodstream forms. Nature of the data set: In vitro activity against T. brucei (HTS SYBR Green I growth inhibition assay). Type of data set: cell-based, Trypanosoma brucei brucei. As to conditions: Trypanosoma brucei, 50 μM; standard deviation within ±10% of the value; read-out: % Inhibition T. brucei at 50 μM.
The inhibition is the change of the read-out against control, counted positive when it falls. With `COc1ccccc1-c1nnc(N)s1` [1h], the inhibition at 50 µM was under 0%.

Take `Nc1nnc(/C=C/c2ccccc2)s1` [3h]: the inhibition at 50 µM stood at 82.7%.

With `Nc1nnc(NCc2ccc(Cl)c(Cl)c2)s1` [4e], the inhibition at 50 µM was under 0%.

As to `Nc1nnc(N2CCC(Cc3ccccc3)CC2)s1` [4r, 5G(4GbenzylpiperidinG1Gyl)G1,3,4GthiadiazolG2Gamine], the inhibition at 50 µM stood at 1.8%.

Staying with this data set, now noted: Trypanosoma brucei, read-out: % Inhibition T. brucei at 50 μM.
In the case of `CN(C)CCc1nnc(N)s1` [3i], the inhibition at 50 µM was under 0%.

The data set is the same for the next values; noted with them: Trypanosoma brucei, standard deviation within ±10% of the value; read-out: EC50 T. brucei.
As usually defined, the EC50 is the concentration at which the effect is half-maximal. On to `Nc1nnc(/C=C/c2ccccc2)s1` [3h], for which the EC50 was determined as 58 µM.

For the next data set, the system named is 786-O. Nature of the data set: cells. Further details: mitochondrial toxicity in 786-O renal carcinoma cells. Particulars: Homo sapiens, 786-0; mitochondrial toxicity.
`COc1ccccc1-c1nnc(N)s1` [1h]: the inhibition at 10 µM was -7.8 ± 2.6%.

Regarding `CN(C)CCc1nnc(N)s1` [3i], the inhibition at 10 µM is -12.4 ± 3.4%.

Consider `Nc1nnc(/C=C/c2ccccc2)s1` [3h], for which the inhibition at 10 µM is -1.3 ± 6.6%.

As to `Nc1nnc(NCc2ccc(Cl)c(Cl)c2)s1` [4e], the inhibition at 10 µM worked out at 3.6 ± 8.5%.

With `Nc1nnc(N2CCC(Cc3ccccc3)CC2)s1` [4r, 5G(4GbenzylpiperidinG1Gyl)G1,3,4GthiadiazolG2Gamine], the inhibition at 10 µM is -7.3 ± 10.5%.

The next data set deals with CYP3A4 (Homo sapiens, UniProt P08684). Kind of data set: in vitro. The arrangement: cytochrome P450 isoform inhibition liability assay.
Sequence of CYP3A4 (P08684 whole entry, canonical isoform): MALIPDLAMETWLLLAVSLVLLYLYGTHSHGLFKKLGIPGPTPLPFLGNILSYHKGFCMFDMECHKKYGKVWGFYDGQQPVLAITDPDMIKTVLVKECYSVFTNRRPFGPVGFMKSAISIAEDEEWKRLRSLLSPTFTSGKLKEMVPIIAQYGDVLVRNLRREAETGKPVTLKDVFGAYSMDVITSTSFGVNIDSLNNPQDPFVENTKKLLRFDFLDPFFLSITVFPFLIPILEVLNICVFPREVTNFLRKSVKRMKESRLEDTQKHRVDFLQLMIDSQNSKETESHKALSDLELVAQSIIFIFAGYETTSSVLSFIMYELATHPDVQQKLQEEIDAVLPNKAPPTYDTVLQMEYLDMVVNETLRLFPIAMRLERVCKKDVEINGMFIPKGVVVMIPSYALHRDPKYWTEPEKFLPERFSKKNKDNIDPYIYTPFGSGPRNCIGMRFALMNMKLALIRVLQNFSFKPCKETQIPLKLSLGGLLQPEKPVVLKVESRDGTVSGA
Conditions: not given
On to `COc1ccccc1-c1nnc(N)s1` [1h], for which the inhibition at 10 µM was -9.4 ± 8%.

Consider `CN(C)CCc1nnc(N)s1` [3i], for which the inhibition at 10 µM is -14.3 ± 3.1%.

Turning to `Nc1nnc(/C=C/c2ccccc2)s1` [3h], the inhibition at 10 µM turned out to be 45.9 ± 5.5%.

In the case of `Nc1nnc(NCc2ccc(Cl)c(Cl)c2)s1` [4e], the inhibition at 10 µM amounted to 27.4 ± 6.8%.

For the molecule `Nc1nnc(N2CCC(Cc3ccccc3)CC2)s1` [4r, 5G(4GbenzylpiperidinG1Gyl)G1,3,4GthiadiazolG2Gamine], the inhibition at 10 µM was 21.7 ± 4.3%.

For a further data set, the target named is CYP2C19 (Homo sapiens, UniProt P33261). Kind of data set: in vitro. Further details: cytochrome P450 isoform inhibition liability assay.
Sequence of CYP2C19 (P33261 whole entry, canonical isoform): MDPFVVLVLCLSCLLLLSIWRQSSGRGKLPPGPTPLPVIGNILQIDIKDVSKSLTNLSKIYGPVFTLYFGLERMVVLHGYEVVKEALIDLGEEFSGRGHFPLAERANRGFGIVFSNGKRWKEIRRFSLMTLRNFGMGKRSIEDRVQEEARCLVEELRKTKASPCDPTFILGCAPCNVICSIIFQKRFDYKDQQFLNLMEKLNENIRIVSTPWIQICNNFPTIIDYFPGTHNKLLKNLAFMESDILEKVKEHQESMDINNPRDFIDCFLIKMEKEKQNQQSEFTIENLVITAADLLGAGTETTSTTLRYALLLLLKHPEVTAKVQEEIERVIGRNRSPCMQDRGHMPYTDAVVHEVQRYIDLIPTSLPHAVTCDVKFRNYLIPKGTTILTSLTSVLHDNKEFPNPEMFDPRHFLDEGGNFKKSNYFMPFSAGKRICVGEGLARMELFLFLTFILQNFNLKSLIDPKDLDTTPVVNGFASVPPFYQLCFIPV
Conditions: not given
Regarding `COc1ccccc1-c1nnc(N)s1` [1h], the inhibition at 10 µM was -20.9 ± 16.1%.

With `CN(C)CCc1nnc(N)s1` [3i], the inhibition at 10 µM is -30.1 ± 15.1%.

As for `Nc1nnc(/C=C/c2ccccc2)s1` [3h], the inhibition at 10 µM was determined as 7.2 ± 9.8%.

As for `Nc1nnc(NCc2ccc(Cl)c(Cl)c2)s1` [4e], the inhibition at 10 µM was found to be 36.8 ± 0.9%.

As to `Nc1nnc(N2CCC(Cc3ccccc3)CC2)s1` [4r, 5G(4GbenzylpiperidinG1Gyl)G1,3,4GthiadiazolG2Gamine], the inhibition at 10 µM is 89.4 ± 2%.

Another data set addresses CYP2D6 (Homo sapiens, UniProt P10635). Nature of the data set: in vitro. Further details: cytochrome P450 isoform inhibition liability assay.
Conditions: not given
Consider `COc1ccccc1-c1nnc(N)s1` [1h], for which the inhibition at 10 µM was -31.5 ± 9.5%.

For `CN(C)CCc1nnc(N)s1` [3i], the inhibition at 10 µM is -35.4 ± 5%.

`Nc1nnc(/C=C/c2ccccc2)s1` [3h]: the inhibition at 10 µM was -22.1 ± 8%.

In the case of `Nc1nnc(NCc2ccc(Cl)c(Cl)c2)s1` [4e], the inhibition at 10 µM worked out at 99 ± 0.6%.

Turning to `Nc1nnc(N2CCC(Cc3ccccc3)CC2)s1` [4r, 5G(4GbenzylpiperidinG1Gyl)G1,3,4GthiadiazolG2Gamine], the inhibition at 10 µM worked out at 82.7 ± 0.6%.

The next data set concerns the target CYP2C9 (Homo sapiens, UniProt P11712). Nature of the data set: in vitro. The arrangement: cytochrome P450 isoform inhibition liability assay.
Conditions: not given
`COc1ccccc1-c1nnc(N)s1` [1h]: the inhibition at 10 µM is -32.3 ± 3.6%.

Take `CN(C)CCc1nnc(N)s1` [3i]: the inhibition at 10 µM is -13.5 ± 3.9%.

As to `Nc1nnc(/C=C/c2ccccc2)s1` [3h], the inhibition at 10 µM is 4.1 ± 5.9%.

`Nc1nnc(NCc2ccc(Cl)c(Cl)c2)s1` [4e]: the inhibition at 10 µM is 17.6 ± 0.9%.

Turning to `Nc1nnc(N2CCC(Cc3ccccc3)CC2)s1` [4r, 5G(4GbenzylpiperidinG1Gyl)G1,3,4GthiadiazolG2Gamine], the inhibition at 10 µM stood at 45.9 ± 3.3%.

For the next data set, the target named is T1, CYP1A2 (Homo sapiens, UniProt P05177).
T1 sequence (P05177 1-516): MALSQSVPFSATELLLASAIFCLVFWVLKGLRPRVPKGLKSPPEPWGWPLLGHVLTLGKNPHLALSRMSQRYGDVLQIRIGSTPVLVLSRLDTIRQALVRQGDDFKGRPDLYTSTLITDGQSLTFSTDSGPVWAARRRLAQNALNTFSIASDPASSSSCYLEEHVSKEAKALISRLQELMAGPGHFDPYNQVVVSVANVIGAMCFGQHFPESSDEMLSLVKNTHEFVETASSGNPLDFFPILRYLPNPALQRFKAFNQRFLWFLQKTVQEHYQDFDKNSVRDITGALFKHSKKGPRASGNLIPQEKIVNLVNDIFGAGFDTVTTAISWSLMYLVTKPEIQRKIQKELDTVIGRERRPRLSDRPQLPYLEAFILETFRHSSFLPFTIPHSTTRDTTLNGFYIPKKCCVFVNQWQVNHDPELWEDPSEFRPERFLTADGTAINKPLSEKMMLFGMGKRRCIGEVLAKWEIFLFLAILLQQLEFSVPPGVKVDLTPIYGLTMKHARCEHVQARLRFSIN
Nature of the data set: in vitro.
Conditions: not given
The arrangement: cytochrome P450 isoform inhibition liability assay.
With `COc1ccccc1-c1nnc(N)s1` [1h], the inhibition at 10 µM came out at 21.5 ± 4.6%.

As to `CN(C)CCc1nnc(N)s1` [3i], the inhibition at 10 µM is -3.2 ± 4.2%.

As for `Nc1nnc(/C=C/c2ccccc2)s1` [3h], the inhibition at 10 µM is 25.2 ± 1.1%.

With `Nc1nnc(NCc2ccc(Cl)c(Cl)c2)s1` [4e], the inhibition at 10 µM was 29.1 ± 3.4%.

In the case of `Nc1nnc(N2CCC(Cc3ccccc3)CC2)s1` [4r, 5G(4GbenzylpiperidinG1Gyl)G1,3,4GthiadiazolG2Gamine], the inhibition at 10 µM came to 20 ± 1.2%.

In another data set the target is T2, hDHFR (Homo sapiens, UniProt P00374).
T2 construct: gene DHFR
T2 sequence (P00374 1-187): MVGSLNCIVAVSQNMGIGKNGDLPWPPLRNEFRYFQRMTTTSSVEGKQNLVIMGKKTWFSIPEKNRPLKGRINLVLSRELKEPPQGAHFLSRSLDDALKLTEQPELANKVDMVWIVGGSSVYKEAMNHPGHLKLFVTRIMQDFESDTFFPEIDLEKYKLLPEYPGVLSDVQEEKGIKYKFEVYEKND
Kind of data set: biochemical. The arrangement: human DHFR enzyme inhibition.
Conditions: not given
Here is the method:
Figure 10 Summary heat map of the in vitro assays to determine possible liability issues for all synthesized compounds. Assays were performed to assess inhibition of hERG and five CYP isoforms (1A2, 2C9, 2C19, 2D6, and 3A4), growth inhibition of A549 and W1-38 cell lines, and mitochondrial toxicity at 10 μM. The hDHFR inhibition was determined at 100 μM. The data, expressed as percentage values, were organized by adopting a color code for rapid and intuitive visualization. The ideal compound should have all tiles blue, indicating a safe toxicological profile for progressing into the development pipeline. The cells are colored from blue (100% of cell growth at the tested concentration) to red (0% of cell growth at the tested concentration) for A549 and W1-38 and from blue (0% of inhibitory activity at the tested concentration) to red (100% of inhibitory activity at the tested concentration) for CYP isoforms, hERG, hDHFR, and mitochondrial toxicity.
As for `COc1ccccc1-c1nnc(N)s1` [1h], the inhibition at 100 µM amounted to 14%.

Regarding `CN(C)CCc1nnc(N)s1` [3i], the inhibition at 100 µM came out at 12%.

Take `Nc1nnc(NCc2ccc(Cl)c(Cl)c2)s1` [4e]: the inhibition at 100 µM stood at 24%.

For `Nc1nnc(N2CCC(Cc3ccccc3)CC2)s1` [4r, 5G(4GbenzylpiperidinG1Gyl)G1,3,4GthiadiazolG2Gamine], the inhibition at 100 µM was 13%.

Staying with this data set, now noted: 10 uM.
In the case of `Nc1nnc(/C=C/c2ccccc2)s1` [3h], the inhibition at 10 µM turned out to be 15%.

The target in another data set is T3, hERG (Homo sapiens, UniProt Q12809).
T3 construct: gene KCNH2
T3 sequence (Q12809 whole entry): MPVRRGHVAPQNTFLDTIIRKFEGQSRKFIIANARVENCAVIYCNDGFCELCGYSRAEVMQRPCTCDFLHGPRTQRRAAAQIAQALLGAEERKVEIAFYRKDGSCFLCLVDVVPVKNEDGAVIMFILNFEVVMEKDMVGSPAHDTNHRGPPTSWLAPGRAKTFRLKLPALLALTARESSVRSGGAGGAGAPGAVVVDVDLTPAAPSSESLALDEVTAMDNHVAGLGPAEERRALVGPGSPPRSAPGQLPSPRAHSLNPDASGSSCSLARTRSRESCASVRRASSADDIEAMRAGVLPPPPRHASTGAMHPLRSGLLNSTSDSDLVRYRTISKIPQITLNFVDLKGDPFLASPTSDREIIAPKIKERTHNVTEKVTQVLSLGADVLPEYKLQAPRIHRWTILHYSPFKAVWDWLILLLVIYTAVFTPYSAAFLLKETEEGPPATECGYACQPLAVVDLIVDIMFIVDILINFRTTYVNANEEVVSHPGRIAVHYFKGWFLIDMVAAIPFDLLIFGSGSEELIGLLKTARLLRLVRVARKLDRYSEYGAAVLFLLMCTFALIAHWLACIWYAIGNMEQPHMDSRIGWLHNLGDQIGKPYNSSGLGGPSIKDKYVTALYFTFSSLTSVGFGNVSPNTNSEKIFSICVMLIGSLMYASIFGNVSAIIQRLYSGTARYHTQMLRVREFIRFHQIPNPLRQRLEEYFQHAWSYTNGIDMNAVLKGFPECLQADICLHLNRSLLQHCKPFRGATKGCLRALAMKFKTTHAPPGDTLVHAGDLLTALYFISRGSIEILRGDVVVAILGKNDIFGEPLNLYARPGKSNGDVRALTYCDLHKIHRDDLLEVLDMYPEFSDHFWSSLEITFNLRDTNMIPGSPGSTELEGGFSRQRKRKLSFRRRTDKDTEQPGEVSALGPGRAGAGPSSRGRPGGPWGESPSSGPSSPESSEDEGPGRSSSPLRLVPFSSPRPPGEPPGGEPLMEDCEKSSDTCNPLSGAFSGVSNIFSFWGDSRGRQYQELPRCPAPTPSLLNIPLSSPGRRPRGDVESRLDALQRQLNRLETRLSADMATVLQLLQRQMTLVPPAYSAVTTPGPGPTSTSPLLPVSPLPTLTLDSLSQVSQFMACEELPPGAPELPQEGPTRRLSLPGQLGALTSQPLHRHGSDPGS
Assay: not given
Further details: hERG inhibition liability assay.
Conditions: not given
With `COc1ccccc1-c1nnc(N)s1` [1h], the inhibition at 10 µM is 5.2 ± 6.6%.

`CN(C)CCc1nnc(N)s1` [3i]: the inhibition at 10 µM amounted to 0.7 ± 2.8%.

In the case of `Nc1nnc(/C=C/c2ccccc2)s1` [3h], the inhibition at 10 µM stood at 58.7 ± 4.9%.

In the case of `Nc1nnc(NCc2ccc(Cl)c(Cl)c2)s1` [4e], the inhibition at 10 µM turned out to be 75.6 ± 4.4%.

For `Nc1nnc(N2CCC(Cc3ccccc3)CC2)s1` [4r, 5G(4GbenzylpiperidinG1Gyl)G1,3,4GthiadiazolG2Gamine], the inhibition at 10 µM was determined as 46.5 ± 4.7%.

System in the next data set: not listed separately
Nature of the data set: in vitro. The arrangement: cytotoxicity, per cent cell growth of WI-38 fibroblasts. As to conditions: human, wi-38 cells; read-out: % cell growth W1-38 at 10uM.
As for `COc1ccccc1-c1nnc(N)s1` [1h], the viability at 10 µM was determined as 129 ± 10.3%.

On to `CN(C)CCc1nnc(N)s1` [3i], for which the viability at 10 µM is 114 ± 22.2%.

`Nc1nnc(/C=C/c2ccccc2)s1` [3h]: the viability at 10 µM amounted to 111 ± 42%.

Turning to `Nc1nnc(NCc2ccc(Cl)c(Cl)c2)s1` [4e], the viability at 10 µM turned out to be 68.5 ± 18.8%.

For `Nc1nnc(N2CCC(Cc3ccccc3)CC2)s1` [4r, 5G(4GbenzylpiperidinG1Gyl)G1,3,4GthiadiazolG2Gamine], the viability at 10 µM is 92.7 ± 15.7%.

System in another data set: not listed separately
Kind of data set: in vitro. The arrangement: cytotoxicity, per cent cell growth of A549 cells. As to conditions: human, a549 cells; read-out: % cell growth A549 at 10uM.
For `COc1ccccc1-c1nnc(N)s1` [1h], the viability at 10 µM came out at 126 ± 17.3%.

On to `CN(C)CCc1nnc(N)s1` [3i], for which the viability at 10 µM worked out at 143 ± 11.8%.

As for `Nc1nnc(/C=C/c2ccccc2)s1` [3h], the viability at 10 µM worked out at 138 ± 5.6%.

Regarding `Nc1nnc(NCc2ccc(Cl)c(Cl)c2)s1` [4e], the viability at 10 µM turned out to be 106 ± 2.7%.

With `Nc1nnc(N2CCC(Cc3ccccc3)CC2)s1` [4r, 5G(4GbenzylpiperidinG1Gyl)G1,3,4GthiadiazolG2Gamine], the viability at 10 µM came out at 111 ± 6.5%.

Another data set concerns the target T4, TbPTR1 (Trypanosoma brucei brucei, UniProt O76290).
T4 construct: made in house
T4 sequence (O76290 1-268): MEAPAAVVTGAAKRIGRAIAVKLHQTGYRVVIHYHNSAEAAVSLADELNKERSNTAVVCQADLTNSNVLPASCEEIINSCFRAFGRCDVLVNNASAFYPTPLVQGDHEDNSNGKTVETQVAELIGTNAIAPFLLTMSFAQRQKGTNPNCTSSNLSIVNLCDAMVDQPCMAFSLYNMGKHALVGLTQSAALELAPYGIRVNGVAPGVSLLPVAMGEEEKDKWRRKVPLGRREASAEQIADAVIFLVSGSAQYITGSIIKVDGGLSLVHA
Kind of data set: biochemical. Particulars: 50 μM compound; read-out: % Inhibition TbPTR1 at 50 μM.
For `COc1ccccc1-c1nnc(N)s1` [1h], the inhibition at 50 µM turned out to be 24.1 ± 1%.

As for `Nc1nnc(/C=C/c2ccccc2)s1` [3h], the inhibition at 50 µM was found to be 34.3 ± 1.2%.

Regarding `Nc1nnc(NCc2ccc(Cl)c(Cl)c2)s1` [4e], the inhibition at 50 µM was found to be 48.5 ± 2.1%.

On to `Nc1nnc(N2CCC(Cc3ccccc3)CC2)s1` [4r, 5G(4GbenzylpiperidinG1Gyl)G1,3,4GthiadiazolG2Gamine], for which the inhibition at 50 µM was determined as 8.4 ± 0.3%.

The same data set, now with this note: dose-response 0.001-100 μM.
One may read the IC50 as the midpoint of a concentration-inhibition curve. High values mean weaker potency in that assay, low ones greater potency in that assay. Turning to `Nc1nnc(NCc2ccc(Cl)c(Cl)c2)s1` [4e], inhibition was half-maximal at 31 µM (IC50).

The same data set, now with this note: read-out: % Inhibition TbPTR1 at 50 μM.
As for `CN(C)CCc1nnc(N)s1` [3i], the inhibition at 50 µM worked out at 5.6 ± 0.6%.
